Experimental data as given in ChEMBL document CHEMBL4433204, “Design, synthesis and docking study of novel picolinamide derivatives as anticancer agents and VEGFR-2 inhibitors” (Eur J Med Chem, 2019).
One block for each compound: values may come before it. Activity calls are given as the source filed them. No cut-off for these calls is given here.

How the values were obtained:
[1] = biological target: Epidermal growth factor receptor (Homo sapiens, UniProt P00533); test: biochemical; assay type: cell-based, Sf9
[2] = test system: PANC-1; test: Anticancer activity against human PANC1 assessed as reduction in cell viability at 100 uM incubated for 48 hrs by MTT assay relative to control; assay type: functional
[3] = biological target: Receptor tyrosine-protein kinase erbB-2 (Homo sapiens, UniProt P04626); test: Inhibition of human HER2 in human A549 cells by ELISA method; assay type: cell-based
[4] = test system: A549; test: Anticancer activity against human A549 cells assessed as reduction in cell viability incubated for 48 hrs by MTT assay; settings: A549, 48 h
[5] = biological target: Hepatocyte growth factor receptor (Homo sapiens, UniProt P08581); test: Inhibition of human c-MET incubated for 2 hrs by ELISA method
[6] = biological target: Vascular endothelial growth factor receptor 2 (Homo sapiens, UniProt P35968); test: Inhibition of human VEGFR2 in human A549 cells incubated for over night by ELISA method; assay type: cell-based
[7] = biological target: T1, Tyrosine-protein kinase Mer (Homo sapiens, UniProt Q12866); test: Inhibition of human MER incubated for 90 mins by ELISA method
T1 sequence (Q12866 whole entry): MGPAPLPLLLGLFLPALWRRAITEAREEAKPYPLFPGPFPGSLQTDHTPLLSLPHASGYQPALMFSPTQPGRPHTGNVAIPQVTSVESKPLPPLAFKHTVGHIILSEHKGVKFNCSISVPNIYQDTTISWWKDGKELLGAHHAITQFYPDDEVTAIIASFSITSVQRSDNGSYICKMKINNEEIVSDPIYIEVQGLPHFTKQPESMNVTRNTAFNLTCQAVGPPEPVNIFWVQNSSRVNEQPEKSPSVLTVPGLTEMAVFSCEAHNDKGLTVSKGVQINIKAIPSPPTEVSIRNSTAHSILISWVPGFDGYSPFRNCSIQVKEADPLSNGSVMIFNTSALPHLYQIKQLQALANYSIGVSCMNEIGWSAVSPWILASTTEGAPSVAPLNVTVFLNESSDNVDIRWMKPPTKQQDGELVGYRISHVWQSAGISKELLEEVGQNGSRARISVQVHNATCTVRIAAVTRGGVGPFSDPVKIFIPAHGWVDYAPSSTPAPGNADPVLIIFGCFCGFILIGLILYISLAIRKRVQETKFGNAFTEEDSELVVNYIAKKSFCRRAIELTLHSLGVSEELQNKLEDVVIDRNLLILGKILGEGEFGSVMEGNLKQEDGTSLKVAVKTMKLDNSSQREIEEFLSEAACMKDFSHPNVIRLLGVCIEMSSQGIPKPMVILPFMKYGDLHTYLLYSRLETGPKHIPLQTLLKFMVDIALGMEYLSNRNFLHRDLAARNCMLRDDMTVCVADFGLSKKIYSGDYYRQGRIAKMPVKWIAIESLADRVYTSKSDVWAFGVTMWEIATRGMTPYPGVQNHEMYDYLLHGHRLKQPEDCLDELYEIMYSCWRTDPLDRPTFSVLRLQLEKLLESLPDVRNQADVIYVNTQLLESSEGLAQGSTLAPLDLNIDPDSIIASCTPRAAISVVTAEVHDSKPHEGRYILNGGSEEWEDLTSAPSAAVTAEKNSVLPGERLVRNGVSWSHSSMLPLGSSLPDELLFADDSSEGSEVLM

[8] = test system: HT-29; test: Anticancer activity against human HT-29 assessed as reduction in cell viability at 100 uM incubated for 48 hrs by MTT assay relative to control; assay type: functional
[9] = test system: A549; test: Induction of apoptosis in human A549 cells assessed as early apoptotic cells at 2 uM after 24 hrs by Annexin V-FITC/propidium iodide double staining based flow cytometry (reference value: […]); assay type: functional
[10] = test system: A549; test: Induction of apoptosis in human A549 cells assessed as necrotic cells at 2 uM after 24 hrs by Annexin V-FITC/propidium iodide double staining based flow cytometry (reference value: 0.1%); assay type: functional
[11] = test system: HT-29; test: Anticancer activity against human HT-29 assessed as reduction in cell viability incubated for 48 hrs by MTT assay; settings: HT-29, 48 h
[12] = test system: A549; test: Cell cycle arrest in human A549 cells assessed as accumulation at pre-G1 phase at 2 uM after […] by propidium iodide staining-based flow cytometric method (reference value: 0.36%); assay type: functional
[13] = test system: A549; test: Induction of apoptosis in human A549 cells assessed as reduction in MCL-1 protein level after 2 hrs by sandwich ELISA method; assay type: functional, cell-based; settings: A549, 2 h
[14] = test system: A549; test: Induction of apoptosis in human A549 cells assessed as late apoptotic cells at 2 uM after 24 hrs by Annexin V-FITC/propidium iodide double staining based flow cytometry (reference value: 0.11%); assay type: functional
[15] = test system: OVCAR-3; test: Anticancer activity against human OVCAR3 assessed as reduction in cell viability incubated for 48 hrs by MTT assay; settings: OVCAR-3, 48 h
[16] = test system: A549; test: Induction of apoptosis in human A549 cells assessed as measuring caspase-3 levels after 2 hrs by sandwich ELISA method (reference value: 57.22 pg/ml); assay type: functional
[17] = test system: PANC-1; test: Anticancer activity against human PANC1 assessed as reduction in cell viability incubated for 48 hrs by MTT assay; settings: PANC-1, 48 h
[18] = test system: A549; test: Cell cycle arrest in human A549 cells assessed as accumulation at S phase at 2 uM after 24 hrs by propidium iodide staining-based flow cytometric method (reference value: 26.79%); assay type: functional
[19] = test system: A549; test: Induction of apoptosis in human A549 cells assessed as viable cells at 2 uM after 24 hrs by Annexin V-FITC/propidium iodide double staining based flow cytometry (reference value: 97.87%); assay type: functional; settings: A549, 24 h, read-out: Activity
[20] = test system: A549; test: Cell cycle arrest in human A549 cells assessed as accumulation at G2/M phase at 2 uM after 24 hrs by propidium iodide staining-based flow cytometric method (reference value: 7.22%); assay type: functional
[21] = test system: A549; test: Cell cycle arrest in human A549 cells assessed as accumulation at G0/G1 phase at 2 uM after 24 hrs by propidium iodide staining-based flow cytometric method (reference value: 65.63%); assay type: functional
[22] = test system: OVCAR-3; test: Anticancer activity against human OVCAR3 assessed as reduction in cell viability at 100 uM incubated for 48 hrs by MTT assay relative to control; assay type: functional
[23] = test system: 786-0; test: Anticancer activity against human 786-O assessed as reduction in cell viability at 100 uM incubated for 48 hrs by MTT assay relative to control; assay type: functional
[24] = test system: A549; test: Induction of apoptosis in human A549 cells assessed as measuring caspase-3 levels after 2 hrs by sandwich ELISA method relative to control; assay type: functional
[25] = test system: A549; test: Induction of apoptosis in human A549 cells assessed as total apoptotic cells at 2 uM after 24 hrs by Annexin V-FITC/propidium iodide double staining based flow cytometry relative to control; assay type: functional

Sequence of Vascular endothelial growth factor receptor 2 (P35968 whole entry): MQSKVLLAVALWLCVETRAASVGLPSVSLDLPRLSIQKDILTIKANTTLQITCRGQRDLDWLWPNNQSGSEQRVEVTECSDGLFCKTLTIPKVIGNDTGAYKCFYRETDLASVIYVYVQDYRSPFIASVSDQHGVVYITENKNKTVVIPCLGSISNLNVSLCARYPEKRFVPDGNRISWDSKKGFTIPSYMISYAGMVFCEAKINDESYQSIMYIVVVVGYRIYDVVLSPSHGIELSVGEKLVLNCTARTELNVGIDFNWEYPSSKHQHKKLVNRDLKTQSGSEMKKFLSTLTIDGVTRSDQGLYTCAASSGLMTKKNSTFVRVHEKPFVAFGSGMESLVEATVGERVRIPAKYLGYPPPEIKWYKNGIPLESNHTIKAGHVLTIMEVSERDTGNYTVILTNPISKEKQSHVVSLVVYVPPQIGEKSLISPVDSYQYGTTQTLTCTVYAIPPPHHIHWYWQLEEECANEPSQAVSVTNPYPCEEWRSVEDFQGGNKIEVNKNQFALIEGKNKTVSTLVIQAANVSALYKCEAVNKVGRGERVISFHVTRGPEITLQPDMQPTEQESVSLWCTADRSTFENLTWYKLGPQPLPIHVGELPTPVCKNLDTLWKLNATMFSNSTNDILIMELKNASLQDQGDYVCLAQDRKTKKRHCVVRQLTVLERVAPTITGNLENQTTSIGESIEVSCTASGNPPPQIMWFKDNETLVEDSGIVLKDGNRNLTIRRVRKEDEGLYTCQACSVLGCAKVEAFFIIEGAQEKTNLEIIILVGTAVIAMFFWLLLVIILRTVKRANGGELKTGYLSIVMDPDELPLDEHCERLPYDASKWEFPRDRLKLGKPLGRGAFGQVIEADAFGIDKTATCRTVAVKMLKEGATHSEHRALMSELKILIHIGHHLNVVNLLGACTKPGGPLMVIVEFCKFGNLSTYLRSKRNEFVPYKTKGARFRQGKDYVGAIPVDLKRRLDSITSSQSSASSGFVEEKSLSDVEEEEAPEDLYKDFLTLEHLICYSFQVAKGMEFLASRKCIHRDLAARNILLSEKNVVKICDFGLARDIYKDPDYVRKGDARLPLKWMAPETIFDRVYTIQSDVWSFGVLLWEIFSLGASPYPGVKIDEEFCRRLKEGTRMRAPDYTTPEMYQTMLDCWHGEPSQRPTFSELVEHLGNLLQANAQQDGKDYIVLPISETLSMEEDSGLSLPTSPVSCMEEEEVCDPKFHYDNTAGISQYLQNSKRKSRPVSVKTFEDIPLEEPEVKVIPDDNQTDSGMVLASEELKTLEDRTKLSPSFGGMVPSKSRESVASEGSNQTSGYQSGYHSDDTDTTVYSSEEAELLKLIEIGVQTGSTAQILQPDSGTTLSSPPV
Sequence of Receptor tyrosine-protein kinase erbB-2 (P04626 whole entry): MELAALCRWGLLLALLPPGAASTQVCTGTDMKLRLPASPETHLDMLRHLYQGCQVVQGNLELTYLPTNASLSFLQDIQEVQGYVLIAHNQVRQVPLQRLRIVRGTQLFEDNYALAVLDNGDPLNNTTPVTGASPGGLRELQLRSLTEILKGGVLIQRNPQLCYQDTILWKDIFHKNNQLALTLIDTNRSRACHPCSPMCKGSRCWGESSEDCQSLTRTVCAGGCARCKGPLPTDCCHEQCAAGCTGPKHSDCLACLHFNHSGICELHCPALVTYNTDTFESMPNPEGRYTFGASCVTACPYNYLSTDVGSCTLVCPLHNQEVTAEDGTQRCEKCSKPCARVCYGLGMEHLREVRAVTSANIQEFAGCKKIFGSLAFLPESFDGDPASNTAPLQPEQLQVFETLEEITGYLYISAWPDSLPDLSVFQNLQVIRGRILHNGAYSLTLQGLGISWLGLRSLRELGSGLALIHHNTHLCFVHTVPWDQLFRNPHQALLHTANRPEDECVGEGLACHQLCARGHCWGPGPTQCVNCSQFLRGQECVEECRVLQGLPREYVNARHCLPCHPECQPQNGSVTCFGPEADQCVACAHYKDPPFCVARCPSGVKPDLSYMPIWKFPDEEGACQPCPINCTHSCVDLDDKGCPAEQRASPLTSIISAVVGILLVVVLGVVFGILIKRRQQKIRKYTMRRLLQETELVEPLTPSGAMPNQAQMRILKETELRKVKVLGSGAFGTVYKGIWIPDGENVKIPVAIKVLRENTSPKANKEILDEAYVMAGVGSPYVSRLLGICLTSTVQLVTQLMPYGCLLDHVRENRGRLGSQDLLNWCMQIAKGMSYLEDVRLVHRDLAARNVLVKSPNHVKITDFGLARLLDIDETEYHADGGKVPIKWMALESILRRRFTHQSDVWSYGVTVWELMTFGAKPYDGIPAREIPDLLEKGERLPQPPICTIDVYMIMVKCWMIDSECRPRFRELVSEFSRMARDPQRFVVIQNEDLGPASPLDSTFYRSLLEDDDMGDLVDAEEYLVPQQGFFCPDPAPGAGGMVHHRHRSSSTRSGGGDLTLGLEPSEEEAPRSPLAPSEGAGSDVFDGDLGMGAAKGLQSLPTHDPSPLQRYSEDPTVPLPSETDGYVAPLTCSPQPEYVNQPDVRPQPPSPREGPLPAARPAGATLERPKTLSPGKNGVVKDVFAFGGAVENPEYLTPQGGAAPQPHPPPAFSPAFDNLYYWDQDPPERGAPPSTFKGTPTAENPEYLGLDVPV
Sequence of Hepatocyte growth factor receptor (P08581 whole entry): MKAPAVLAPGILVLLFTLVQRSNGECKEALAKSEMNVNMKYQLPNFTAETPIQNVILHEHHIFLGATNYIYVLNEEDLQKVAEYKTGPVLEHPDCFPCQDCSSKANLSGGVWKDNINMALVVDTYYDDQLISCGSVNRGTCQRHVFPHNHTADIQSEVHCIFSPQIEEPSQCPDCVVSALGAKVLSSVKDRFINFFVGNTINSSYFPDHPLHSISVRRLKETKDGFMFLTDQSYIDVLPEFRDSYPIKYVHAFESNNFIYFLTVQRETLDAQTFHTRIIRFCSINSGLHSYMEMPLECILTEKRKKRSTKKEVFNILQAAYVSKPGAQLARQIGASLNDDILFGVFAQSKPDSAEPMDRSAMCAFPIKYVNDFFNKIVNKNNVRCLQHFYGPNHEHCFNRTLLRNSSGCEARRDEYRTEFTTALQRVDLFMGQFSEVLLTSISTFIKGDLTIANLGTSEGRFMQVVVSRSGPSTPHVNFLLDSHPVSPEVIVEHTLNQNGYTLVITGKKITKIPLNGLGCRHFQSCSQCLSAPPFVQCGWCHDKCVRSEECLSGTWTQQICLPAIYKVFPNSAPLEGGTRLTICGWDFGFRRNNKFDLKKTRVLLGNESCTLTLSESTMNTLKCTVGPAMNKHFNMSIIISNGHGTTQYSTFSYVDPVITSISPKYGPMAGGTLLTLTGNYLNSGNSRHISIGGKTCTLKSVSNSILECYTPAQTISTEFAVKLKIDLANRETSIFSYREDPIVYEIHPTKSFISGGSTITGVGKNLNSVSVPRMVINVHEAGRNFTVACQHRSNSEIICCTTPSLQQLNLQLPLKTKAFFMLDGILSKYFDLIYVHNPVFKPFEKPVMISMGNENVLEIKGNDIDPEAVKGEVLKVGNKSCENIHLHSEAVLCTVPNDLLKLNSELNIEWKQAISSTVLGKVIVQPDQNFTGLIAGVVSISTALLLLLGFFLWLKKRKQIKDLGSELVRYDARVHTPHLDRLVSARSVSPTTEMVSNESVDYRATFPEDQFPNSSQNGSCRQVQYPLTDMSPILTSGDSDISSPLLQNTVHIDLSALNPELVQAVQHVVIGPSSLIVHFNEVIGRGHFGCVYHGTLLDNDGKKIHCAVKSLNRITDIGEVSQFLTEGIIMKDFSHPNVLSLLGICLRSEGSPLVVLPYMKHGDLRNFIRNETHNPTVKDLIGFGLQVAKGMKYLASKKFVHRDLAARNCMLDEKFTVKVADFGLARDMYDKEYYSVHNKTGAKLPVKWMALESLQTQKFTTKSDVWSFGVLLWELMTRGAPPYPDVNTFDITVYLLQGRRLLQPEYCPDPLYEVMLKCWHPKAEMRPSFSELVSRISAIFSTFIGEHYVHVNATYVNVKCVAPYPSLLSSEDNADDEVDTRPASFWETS

Compound: O=C(CCSC(=S)N1CCN(c2ccccc2)CC1)Nc1cccc(NC(=O)c2ccccn2)c1
IC50 [1]: 70 nM
Activity [2]: Active
IC50 [3]: 54 nM
IC50 [4]: 31700 nM
IC50 [5]: 17900 nM
IC50 [6]: 94 nM
IC50 [7]: 3120 nM
Activity [8]: Active

Compound: O=C(Nc1ccc(Cl)cc1)Nc1cccc(NC(=O)c2ccccn2)c1
IC50 [4]: 3620 nM

Compound: CNC(=O)c1cc(Oc2ccc(NC(=O)Nc3ccc(Cl)c(C(F)(F)F)c3)cc2)ccn1 [SORAFENIB]
Activity [9]: 6.18%
Activity [10]: 1.42%
IC50 [11]: 10000 nM
Activity [12]: 16.22%
IC50 [13]: 5530 nM
Activity [14]: 8.62%
IC50 [15]: 12000 nM
Activity [16]: 515 pg/mL
IC50 [17]: 20000 nM
Activity [18]: 15.51%
viability at 2 µM [19]: 82%
IC50 [4]: 750 nM
Activity [20]: 23.14%
Activity [21]: 45.13%

Compound: O=C(Nc1ccccc1)Nc1cccc(NC(=O)c2ccccn2)c1
IC50 [4]: 5190 nM

Compound: O=C(Nc1cccc(Cl)c1)Nc1cccc(NC(=O)c2ccccn2)c1
IC50 [4]: 2850 nM

Compound: O=C(CSC(=S)N1CCN(c2ccccc2)CC1)Nc1cccc(NC(=O)c2ccccn2)c1
IC50 [4]: 530 nM

Compound: O=C(Nc1cccc(NC(=O)c2ccccn2)c1)NC1CCCCC1
IC50 [1]: 147 nM
Activity [2]: <=50%
Activity [22]: <=50%
IC50 [3]: 64 nM
Activity [23]: <=50%
IC50 [4]: 6260 nM
IC50 [5]: 6220 nM
IC50 [6]: 87 nM
IC50 [7]: 2630 nM
Activity [8]: <=50%

Compound: CN1CCN(C(=S)SCC(=O)Nc2cccc(NC(=O)c3ccccn3)c2)CC1
IC50 [4]: 1340 nM

Compound: O=C(NCc1ccccc1)Nc1cccc(NC(=O)c2ccccn2)c1
IC50 [4]: 2990 nM

Compound: O=C(Nc1cccc(NC(=S)Nc2ccccc2)c1)c1ccccn1
IC50 [4]: 4400 nM

Compound: CCN1CCN(C(=S)SCC(=O)Nc2cccc(NC(=O)c3ccccn3)c2)CC1
IC50 [4]: 3720 nM

Compound: O=C(CCSC(=S)N1CCOCC1)Nc1cccc(NC(=O)c2ccccn2)c1
IC50 [4]: 2420 nM

Compound: O=C(CCSC(=S)N1CCCCC1)Nc1cccc(NC(=O)c2ccccn2)c1
IC50 [4]: 4120 nM

Compounds with a lower IC50 [4], results first:

IC50 [4]: 320 nM
Compound: O=C(Nc1ccc([N+](=O)[O-])cc1)Nc1cccc(NC(=O)c2ccccn2)c1

IC50 [4]: 40 nM
Compound: O=C(CSC(=S)N1CCN(c2ncccn2)CC1)Nc1cccc(NC(=O)c2ccccn2)c1

IC50 [1]: 84 nM
IC50 [3]: 104 nM
IC50 [13]: 6700 nM
IC50 [4]: 320 nM
IC50 [5]: 8300 nM
IC50 [6]: 27 nM
IC50 [7]: 3950 nM
Compound: O=C(CSC(=S)N1CCCCC1)Nc1cccc(NC(=O)c2ccccn2)c1
Activity [2]: Active
Activity [9]: 5.01%
Activity [10]: 1.33%
Activity [12]: 13.06%
Activity [14]: 7.72%
fold change (FC) [24]: 8.833
Activity [16]: 505.4 pg/mL
Activity [18]: 16.66%
viability at 2 µM [19]: 85.2%
Activity [20]: 17.36%
fold change (FC) [25]: 49
Activity [21]: 52.92%
Activity [8]: Active

IC50 [4]: 450 nM
Compound: O=C(Nc1cccc(NC(=S)Nc2ccc([N+](=O)[O-])cc2)c1)c1ccccn1

IC50 [4]: 210 nM
Compound: C=CCN1CCN(C(=S)SCC(=O)Nc2cccc(NC(=O)c3ccccn3)c2)CC1

IC50 [4]: 240 nM
Compound: O=C(Nc1cccc(NC(=O)c2ccccn2)c1)Nc1ccc2ccccc2c1

IC50 [4]: 50 nM
Compound: O=C(CSC(=S)N1CCOCC1)Nc1cccc(NC(=O)c2ccccn2)c1

IC50 [4]: 180 nM
Compound: CC(C)(C)OC(=O)N1CCN(C(=S)SCC(=O)Nc2cccc(NC(=O)c3ccccn3)c2)CC1

IC50 [4]: 20 nM
Compound: Cc1ccc(NC(=O)Nc2cccc(NC(=O)c3ccccn3)c2)cc1

IC50 [4]: 390 nM
Compound: O=C(CSC(=S)N1CCN(C2CCCCC2)CC1)Nc1cccc(NC(=O)c2ccccn2)c1

IC50 [4]: 460 nM
Compound: O=C(CCSC(=S)N1CCN(c2ncccn2)CC1)Nc1cccc(NC(=O)c2ccccn2)c1
